Holding throughout (type): functional
For assay [1], the species on record is Rattus norvegicus. In words: Antiexudative activity in rat assessed as inhibition of exudate formation in granuloma pouch at 0.002 umol compound injected into pouch on day 5 measured on day 11 relative to control.
The next assay deals with Homo sapiens. The assay is described as follows: Vasoconstrictive activity in human at 0.02 to 0.18 ug applied topically by paper-patch test relative to betamethasone 17-valerate.
Assay [2] is filed under the species Rattus norvegicus. The assay is described as follows: Antiexudative activity in rat assessed as inhibition of exudate formation in granuloma pouch at 0.02 umol compound injected into pouch on day 5 measured on day 11 relative to control.
The test system of assay [3] is Rattus norvegicus. In words: Antiexudative activity in rat assessed as inhibition of exudate formation in granuloma pouch at 0.002 umol, sc administered from day 2 to day 10 measured on day 11 relative to control.
Assay [4] deals with Rattus norvegicus. In words: Antiexudative activity in rat assessed as inhibition of exudate formation in granuloma pouch at 0.02 umol, sc administered from day 2 to day 10 measured on day 11 relative to control.

Where only a bound is given, the exact number is not on record here.

With `CC(=O)O[C@]1(C(C)=O)CC[C@H]2[C@@H]3C[C@H](F)C4=CC(=O)C=C[C@]4(C)[C@@]3(F)[C@@H](O)C[C@@]21C`, the “inhibition (INH)” value in the assay listed under Rattus norvegicus [1] worked out at 18%; in the assay listed under Rattus norvegicus [2] it was 13%. For the same compound, the “fold change (FC)” value with Homo sapiens is given as 1.5.

Regarding `CCC(=O)O[C@]1(C(C)=O)CC[C@H]2[C@@H]3C[C@H](F)C4=CC(=O)C=C[C@]4(C)[C@@]3(F)[C@@H](O)C[C@@]21C`, the “inhibition (INH)” value worked out at 47% in the assay listed under Rattus norvegicus [1] and 67% in the assay listed under Rattus norvegicus [2]. Moreover, the “fold change (FC)” value with Homo sapiens was 2.5.

Take `CCCC(=O)O[C@]1(C(C)=O)CC[C@H]2[C@@H]3C[C@H](F)C4=CC(=O)C=C[C@]4(C)[C@@]3(F)[C@@H](O)C[C@@]21C`: the “inhibition (INH)” value in the assay listed under Rattus norvegicus [1] worked out at 60%; in the assay listed under Rattus norvegicus [2], 81%. The “fold change (FC)” value with Homo sapiens is 2.5.

Regarding `CC(=O)[C@@]1(OC(=O)c2ccccc2)CC[C@H]2[C@@H]3C[C@H](F)C4=CC(=O)C=C[C@]4(C)[C@@]3(F)[C@@H](O)C[C@@]21C`, the “inhibition (INH)” value was under 5% in the assay with Rattus norvegicus [3], 71% in the assay filed under Rattus norvegicus [1], 90% in the assay filed under Rattus norvegicus [2] and 35% in the assay with Rattus norvegicus [4]. Further, the “fold change (FC)” value in the assay with Homo sapiens is “<=1”.

Regarding `CCC(=O)O[C@]1(C(=O)CO)CC[C@H]2[C@@H]3C[C@H](F)C4=CC(=O)C=C[C@]4(C)[C@@]3(F)[C@@H](O)C[C@@]21C`, the “inhibition (INH)” value in the assay filed under Rattus norvegicus [1] is listed as under 5%; in the assay listed under Rattus norvegicus [2], 41%.

In the case of `C[C@]12C=CC(=O)C=C1[C@@H](F)C[C@H]1[C@@H]3CC[C@](OC(=O)c4ccccc4)(C(=O)CO)[C@@]3(C)C[C@H](O)[C@@]12F`, the “inhibition (INH)” value in the assay on Rattus norvegicus [3] came out at 20%; in the assay listed under Rattus norvegicus [1], 46%; in the assay filed under Rattus norvegicus [2], 70%; in the assay on Rattus norvegicus [4], 62%.

The values above are taken from ChEMBL document CHEMBL3244383, “Antiinflammatory activity of 17-esters of 6alpha,9alpha-difluoro-21-deoxyprednisolone” (1977).
